Patent EP4745118A1, “HYDROXAMIC ACID COMPOUND OR PHARMACEUTICALLY ACCEPTABLE SALT THEREOF, AND USE THEREOF AND PREPARATION METHOD THEREFOR” (priority 2023, dated 2025)
Converted amounts (≈) assume the structure as drawn. Read-outs that look alike come from different tables or passages of the source.

What was measured:
Experiment in all cases: In vitro antibacterial activity, agar dilution method (MIC)
Type in all cases: cell-based
Shigella flexneri = conditions: 18 hours
Protocol: According to the relevant operating procedures of the Clinical Laboratory Standards Institute (CLSI) in the United States, an antimicrobial susceptibility testing was conducted using the agar dilution method. A 1920 µg/mL stock solution was serially diluted twofold with sterile water to obtain dilutions of 960, 480, 240, 120, 60, 30, 15, 7.5, 3.75, 1.88, 0.94, 0.47 µg/mL, and 1 mL of the dilution was taken respectively from the dilutions with different concentrations and added to a Petri dish, to which 14 mL of melted MH agar medium was added and mixed thoroughly, and the final concentration of the drug in the petri dish is 128, 64, 32, 16, 8, 4, 2, 1, 0.5, 0.25, 0.12, 0.06, and 0.03 µ g/mL, respectively. The agar was allowed to solidify and set aside for later use.
(§1) The test bacteria were propagated in broth and adjusted to a turbidity of 0.5 McFarland (approximately 1-2 × 10^8 CFU/mL) using a turbidimeter before inoculation. The 0.5 McFarland bacterial solution was then diluted 10-fold in broth (approximately 1-2 × 10^7 CFU/mL). A multipoint inoculator was used to inoculate the above bacterial solution onto a series of plates containing different concentrations of drugs (with an inoculation amount of approximately 10^4 CFU per inoculation site). After incubation at a constant temperature of 35°C for 18 hours, results were observed. The minimum concentration of drugs contained in sterile growth plates was determined as the Minimal Inhibitory Concentration (MIC).

Enterobacter cloacae = Enterobacter cloacae CDC1000654 (NDM-1-producing), agar dilution, 35°C, 18 hours
Protocol: According to the relevant operating procedures of the Clinical Laboratory Standards Institute (CLSI) in the United States, an antimicrobial susceptibility testing was conducted using the agar dilution method. […] The agar was allowed to solidify and set aside for later use.
as §1

Proteus vulgaris = Proteus vulgaris ATCC 29905, agar dilution, 35°C, 18 hours
Protocol: (§2) According to the relevant operating procedures of the Clinical Laboratory Standards Institute (CLSI) in the United States, an antimicrobial susceptibility testing was conducted using the agar dilution method. […]. The agar was allowed to solidify and set aside for later use.
as §1

Escherichia coli = conditions: agar dilution, 35°C
Protocol: as §2, §1

Klebsiella pneumoniae = conditions: agar dilution, 35°C, 18 hours
Protocol: as §2, §1

Proteus mirabilis = Proteus mirabilis ATCC 49565, agar dilution, 35°C, 18 hours
Protocol: as §2, §1

Citrobacter freundii = Citrobacter freundii ATCC 43864, agar dilution, 35°C, 18 hours
Protocol: as §2, §1

Enterobacter aerogenes = Enterobacter aerogenes ATCC 13048, agar dilution, 35°C, 18 hours
Protocol: as §2, §1

Pseudomonas aeruginosa = Pseudomonas aeruginosa PAO1, agar dilution, 35°C, 18 hours
Protocol: as §2, §1

Serratia marcescens = Serratia marcescens ATCC 21074, agar dilution, 35°C, 18 hours
Protocol: as §2, §1

Pantoea agglomerans = Pantoea agglomerans ATCC 27993, agar dilution, 35°C, 18 hours
Protocol: as §2, §1

[1] = ATCC12022, Shigella flexneri ATCC 12022, 35°C, read-out: MIC
[2] = Escherichia coli, 18 h, Escherichia coli 13-43 (mcr-1), 18 hours, read-out: MIC
[3] = Escherichia coli, 18 h, Escherichia coli 17-R28 (CRE, NDM-1-producing), 18 hours, read-out: MIC
[4] = Escherichia coli, ATCC2469, 18 h, Escherichia coli ATCC 2469 (CRE, NDM-1-producing), 18 hours, read-out: MIC
[5] = Escherichia coli, ATCC35218, 18 h, Escherichia coli ATCC 35218 (ESBLs-producing), 18 hours, read-out: MIC
[6] = Klebsiella pneumoniae, 18 h, Klebsiella pneumoniae 09-20 (mcr-1), read-out: MIC
[7] = Klebsiella pneumoniae, 18 h, Klebsiella pneumoniae 17-R27 (CRE), read-out: MIC
[8] = Klebsiella pneumoniae, 18 h, Klebsiella pneumoniae 18-8 (ESBLs-producing), read-out: MIC
[9] = Klebsiella pneumoniae, ATCC700603, 18 h, Klebsiella pneumoniae ATCC 700603 (ESBLs-producing), read-out: MIC
[10] = Klebsiella pneumoniae, ATCCBAA2146, 18 h, Klebsiella pneumoniae ATCC BAA-2146 (CRE, NDM-1-producing), read-out: MIC
[11] = Klebsiella aerogenes, ATCC13048, read-out: MIC
[12] = Escherichia coli, 18 h, Escherichia coli 17-R28 (CRE, NDM-1-producing)
[13] = Klebsiella pneumoniae, ATCCBAA2146, 18 h, Klebsiella pneumoniae ATCC BAA-2146 (CRE, NDM-1-producing)

NCC[C@H](O)C(=O)N[C@@H]1C[C@H](N)[C@@H](O[C@H]2O[C@H](CN)[C@@H](O)[C@H](O)[C@H]2O)[C@H](O)[C@H]1O[C@H]1O[C@H](CO)[C@@H](O)[C@H](N)[C@H]1O [Amikacin]
MIC (Shigella flexneri; [1]): 4 µg/mL (≈ 6.83 µM) | MIC (Enterobacter cloacae; read-out: MIC): > 128 µg/mL | MIC (Proteus vulgaris; ATCC29905, read-out: MIC): 1 µg/mL (≈ 1.71 µM) | MIC (Escherichia coli; [2]): 4 µg/mL (≈ 6.83 µM) | MIC (Escherichia coli; [3]): > 128 µg/mL | MIC (Escherichia coli; [4]): > 128 µg/mL | MIC (Escherichia coli; [5]): 4 µg/mL (≈ 6.83 µM) | MIC (Klebsiella pneumoniae; [6]): > 128 µg/mL | MIC (Klebsiella pneumoniae; [7]): 2 µg/mL (≈ 3.42 µM) | MIC (Klebsiella pneumoniae; [8]): 1 µg/mL (≈ 1.71 µM) | MIC (Klebsiella pneumoniae; [9]): 1 µg/mL (≈ 1.71 µM) | MIC (Klebsiella pneumoniae; [10]): > 128 µg/mL | MIC (Proteus mirabilis; ATCC49565, read-out: MIC): 2 µg/mL (≈ 3.42 µM) | MIC (Citrobacter freundii; ATCC43864, read-out: MIC): 2 µg/mL (≈ 3.42 µM) | MIC (Enterobacter aerogenes; [11]): 1 µg/mL (≈ 1.71 µM) | MIC (Pseudomonas aeruginosa; read-out: MIC): 2 µg/mL (≈ 3.42 µM) | MIC (Serratia marcescens; ATCC21074, read-out: MIC): 2 µg/mL (≈ 3.42 µM) | MIC (Pantoea agglomerans; ATCC27993, read-out: MIC): 2 µg/mL (≈ 3.42 µM)

CO/N=C(\C(=O)N[C@@H]1C(=O)N2C(C(=O)[O-])=C(C[N+]3(C)CCCC3)CS[C@H]12)c1csc(N)n1 [Cefepime]
MIC (Shigella flexneri; [1]): ≤ 0.03 µg/mL | MIC (Proteus vulgaris; ATCC29905, read-out: MIC): ≤ 0.03 µg/mL | MIC (Escherichia coli; [2]): 2 µg/mL (≈ 4.16 µM) | MIC (Escherichia coli; [12]): > 128 µg/mL | MIC (Escherichia coli; [4]): 64 µg/mL (≈ 133 µM) | MIC (Escherichia coli; [5]): ≤ 0.03 µg/mL | MIC (Klebsiella pneumoniae; [6]): 1 µg/mL (≈ 2.08 µM) | MIC (Klebsiella pneumoniae; [7]): 0.5 µg/mL (≈ 1.04 µM) | MIC (Klebsiella pneumoniae; [8]): 1 µg/mL (≈ 2.08 µM) | MIC (Klebsiella pneumoniae; [9]): 1 µg/mL (≈ 2.08 µM) | MIC (Klebsiella pneumoniae; [13]): 128 µg/mL (≈ 266 µM) | MIC (Proteus mirabilis; ATCC49565, read-out: MIC): 0.06 µg/mL (≈ 0.125 µM) | MIC (Citrobacter freundii; ATCC43864, read-out: MIC): ≤ 0.03 µg/mL | MIC (Enterobacter aerogenes; [11]): 0.06 µg/mL (≈ 0.125 µM) | MIC (Pseudomonas aeruginosa; read-out: MIC): 2 µg/mL (≈ 4.16 µM) | MIC (Serratia marcescens; ATCC21074, read-out: MIC): 0.06 µg/mL (≈ 0.125 µM) | MIC (Pantoea agglomerans; ATCC27993, read-out: MIC): 0.06 µg/mL (≈ 0.125 µM)

C[C@@H](O)[C@H]1C(=O)N2C(C(=O)O)=C(S[C@@H]3CN[C@H](C(=O)N(C)C)C3)[C@H](C)[C@H]12 [Meropenem]
MIC (Shigella flexneri; [1]): ≤ 0.03 µg/mL | MIC (Enterobacter cloacae; read-out: MIC): 4 µg/mL (≈ 10.4 µM) | MIC (Proteus vulgaris; ATCC29905, read-out: MIC): ≤ 0.03 µg/mL | MIC (Escherichia coli; [2]): ≤ 0.03 µg/mL | MIC (Escherichia coli; [12]): 128 µg/mL (≈ 334 µM) | MIC (Escherichia coli; [4]): 8 µg/mL (≈ 20.9 µM) | MIC (Escherichia coli; [5]): ≤ 0.03 µg/mL | MIC (Klebsiella pneumoniae; [6]): ≤ 0.03 µg/mL | MIC (Klebsiella pneumoniae; [7]): 0.25 µg/mL (≈ 0.652 µM) | MIC (Klebsiella pneumoniae; [8]): ≤ 0.03 µg/mL | MIC (Klebsiella pneumoniae; [9]): ≤ 0.03 µg/mL | MIC (Klebsiella pneumoniae; [10]): 32 µg/mL (≈ 83.4 µM) | MIC (Proteus mirabilis; ATCC49565, read-out: MIC): 0.06 µg/mL (≈ 0.156 µM) | MIC (Citrobacter freundii; ATCC43864, read-out: MIC): ≤ 0.03 µg/mL | MIC (Enterobacter aerogenes; [11]): 0.06 µg/mL (≈ 0.156 µM) | MIC (Pseudomonas aeruginosa; read-out: MIC): 2 µg/mL (≈ 5.22 µM) | MIC (Serratia marcescens; ATCC21074, read-out: MIC): 0.06 µg/mL (≈ 0.156 µM) | MIC (Pantoea agglomerans; ATCC27993, read-out: MIC): ≤ 0.03 µg/mL

Polymyxin B
MIC (Shigella flexneri; Shigella flexneri ATCC 12022, 35°C): 1 µg/mL | MIC (Enterobacter cloacae): 2 µg/mL | MIC (Proteus vulgaris): >128 µg/mL | MIC (Escherichia coli; Escherichia coli 13-43 (mcr-1), 18 hours): 8 µg/mL | MIC (Escherichia coli; Escherichia coli 17-R28 (CRE, NDM-1-producing), 18 hours): 0.5 µg/mL | MIC (Escherichia coli; Escherichia coli ATCC 2469 (CRE, NDM-1-producing), 18 hours): 1 µg/mL | MIC (Escherichia coli; Escherichia coli ATCC 35218 (ESBLs-producing), 18 hours): 0.5 µg/mL | MIC (Klebsiella pneumoniae; Klebsiella pneumoniae 09-20 (mcr-1)): 16 µg/mL | MIC (Klebsiella pneumoniae; Klebsiella pneumoniae 17-R27 (CRE)): 16 µg/mL | MIC (Klebsiella pneumoniae; Klebsiella pneumoniae 18-8 (ESBLs-producing)): 1 µg/mL | MIC (Klebsiella pneumoniae; Klebsiella pneumoniae ATCC 700603 (ESBLs-producing)): 1 µg/mL | MIC (Klebsiella pneumoniae; Klebsiella pneumoniae ATCC BAA-2146 (CRE, NDM-1-producing)): 1 µg/mL | MIC (Proteus mirabilis): >128 µg/mL | MIC (Citrobacter freundii): 2 µg/mL | MIC (Enterobacter aerogenes): 1 µg/mL | MIC (Pseudomonas aeruginosa): 2 µg/mL | MIC (Serratia marcescens): >128 µg/mL | MIC (Pantoea agglomerans): 1 µg/mL

C[C@H]1[C@H](NC(=O)/C(=N\OC(C)(C)C(=O)O)c2csc(N)n2)C(=O)N1S(=O)(=O)O [Aztreonam]
MIC (Shigella flexneri; [1]): 0.06 µg/mL (≈ 0.138 µM) | MIC (Proteus vulgaris; ATCC29905, read-out: MIC): ≤ 0.03 µg/mL | MIC (Escherichia coli; [2]): 16 µg/mL (≈ 36.7 µM) | MIC (Escherichia coli; [3]): 8 µg/mL (≈ 18.4 µM) | MIC (Escherichia coli; [4]): 4 µg/mL (≈ 9.19 µM) | MIC (Escherichia coli; [5]): ≤ 0.03 µg/mL | MIC (Klebsiella pneumoniae; [6]): 0.25 µg/mL (≈ 0.574 µM) | MIC (Klebsiella pneumoniae; [7]): 0.25 µg/mL (≈ 0.574 µM) | MIC (Klebsiella pneumoniae; [8]): 1 µg/mL (≈ 2.3 µM) | MIC (Klebsiella pneumoniae; [9]): 16 µg/mL (≈ 36.7 µM) | MIC (Klebsiella pneumoniae; [13]): > 128 µg/mL | MIC (Proteus mirabilis; ATCC49565, read-out: MIC): ≤ 0.03 µg/mL | MIC (Citrobacter freundii; ATCC43864, read-out: MIC): 0.12 µg/mL (≈ 0.276 µM) | MIC (Enterobacter aerogenes; [11]): 0.12 µg/mL (≈ 0.276 µM) | MIC (Pseudomonas aeruginosa; read-out: MIC): 4 µg/mL (≈ 9.19 µM) | MIC (Serratia marcescens; ATCC21074, read-out: MIC): 0.12 µg/mL (≈ 0.276 µM) | MIC (Pantoea agglomerans; ATCC27993, read-out: MIC): ≤ 0.03 µg/mL
